Source: patent publication US8735429B2, “Benzamide compounds useful as histone deacetylase inhibitors” (AstraZeneca AB, priority 2005, dated 2014)

Tests used:
HCT116 cells = assay: In vitro assay of inhibition of proliferation in whole cells (Test (b)); format: cell-based; details: Homo sapiens, HCT-116, 72 hours, MTS, read-out: IC50 Test (b) (In vitro assay for the inhibition of whole cell proliferation)
Procedure: (b) In Vitro Assay of Inhibition of Proliferation in Whole Cells
Inhibition of proliferation in whole cells was assayed using the Promega cell titer 96 aqueous proliferation assay (Promega #G5421). HCT116 cells were seeded in 96 well plates at 1×10^3 cells/well, and allowed to adhere overnight. They were treated with inhibitors for 72 hours. 20 μl of the tetrazolium dye MTS was added to each well and the plates were re-incubated for 3 hours. Absorbance was then measured on a 96 well plate reader at […]. The IC50 values for HDAC inhibitors were determined by performing dose response curves with individual compounds and determining the concentration of inhibitor producing fifty percent decrease in the maximal signal (diluent control).

recombinant human HDAC1 = molecular target: T1, recombinant human HDAC1 (Homo sapiens, UniProt Q13547); assay: In vitro enzyme assay of recombinant HDAC1 (Test (a)); format: biochemical; details: recombinant human HDAC1, acetylated histone H4 peptide substrate; read-out: IC50 Test (a) (In vitro assay for the inhibition of HDAC1)
T1 construct: FLAG (C); made in house; host or cells: Hi5 insect cells
T1 sequence (Q13547 whole entry): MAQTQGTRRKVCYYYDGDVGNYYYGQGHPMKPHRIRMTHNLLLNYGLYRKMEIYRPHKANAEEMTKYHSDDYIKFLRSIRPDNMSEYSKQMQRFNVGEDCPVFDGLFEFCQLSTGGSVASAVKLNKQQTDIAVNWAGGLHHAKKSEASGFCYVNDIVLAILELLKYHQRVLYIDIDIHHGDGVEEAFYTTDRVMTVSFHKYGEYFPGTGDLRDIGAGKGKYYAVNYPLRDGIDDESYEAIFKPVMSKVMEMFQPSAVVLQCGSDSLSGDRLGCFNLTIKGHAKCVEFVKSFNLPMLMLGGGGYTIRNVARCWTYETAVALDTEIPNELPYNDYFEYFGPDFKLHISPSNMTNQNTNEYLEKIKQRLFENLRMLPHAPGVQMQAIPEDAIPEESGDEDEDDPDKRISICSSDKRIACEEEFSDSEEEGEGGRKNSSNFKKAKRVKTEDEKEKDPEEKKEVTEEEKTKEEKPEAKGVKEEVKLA
Procedure: (a) In Vitro Enzyme Assay of Recombinant HDAC1
HDAC inhibitors were screened against recombinant human HDAC1 produced in Hi5 insect cells. The enzyme was cloned with a FLAG tag at the C-terminal of the gene and affinity purified using Anti-FLAG M2 agarose from SIGMA (A2220).
The deacetylase assays were carried out in a 50 μl reaction. HDAC1 (75 ng of enzyme) diluted in 15 μl of reaction buffer (25 mM TrisHCl (pH 8), 137 mM NaCl, 2.7 mM KCl, 1 mM MgCl2) was mixed with either buffer alone (10 μl) or buffer containing compound (10 μl) for 30 minutes at ambient temperature. 25 μM acetylated histone H4 peptide (KI 174 Biomol) diluted in 25 μl of buffer was then added to the reaction and incubated for one hour at ambient temperature. The reaction was stopped by addition of an equal volume (50 μl) of Fluor de Lys developer (Biomol) containing Trichostatin A at 2 μM. The reaction was allowed to develop for 30 minutes at ambient temperature and then fluorescence measured at an excitation wavelength of 360 nm and an emission wavelength of 465 nm. IC50 values for HDAC enzyme inhibitors were determined by performing dose response curves with individual compounds and determining the concentration of inhibitor producing fifty percent decrease in the maximal signal (diluent control).

COc1c(CN2CCC(c3ccc(C(=O)Nc4ccccc4N)cc3)CC2)c(C)nn1C [Example 4, N-(2-Aminophenyl)-4-{1-[(5-methoxy-1,3-dimethyl-1H-pyrazol-4-yl)methyl]piperidin-4-yl}benzamide]
IC50 (HCT116 cells): 0.508 µM | IC50 (recombinant human HDAC1): 0.081 µM

Nc1ccccc1NC(=O)c1ccc(C2CCN(Cc3ccccn3)CC2)cc1 [Comparative Compound 1, N-(2-aminophenyl)-4-[1-(pyrid-2-ylmethyl)piperidin-4-yl]benzamide]
IC50 (HCT116 cells): 1.43 µM | IC50 (recombinant human HDAC1): 0.1 µM
